Entries after “also recorded” stand apart in the source; their conditions may differ.
Legend:
[1] = Gemcitabine urine concentration during intravesicular perfusion; format: in vivo, rat; conditions: intravesicular perfusion of 180 ug/ml solution
[2] = test system: tumor T regulatory cells to T effector cells; experiment: Flow cytometric immunocyte analysis of residual NBTII bladder tumors; format: in vivo, rat; conditions: residual NBTII tumors from immunocompetent rats
Description: (§1) The direct effects of low dose gemcitabine were studied in athymic rats with human derived MIBC cells, T24-TurboFP635, injected into the bladder. After 3 days tumor growth, gemcitabine or vehicle was perfused into the bladder over 5 days, yielding nominal urine concentrations of 0, 20, 40, or 80 ug/ml gemcitabine, N=6 per group. Tumor bioluminescence was measured on day 5. A companion study in immunocompetent rats inoculated with syngeneic NBTII bladder tumors, provided tumors for immunocyte analysis.

[3] = test system: subcutaneous NBTII tumors; experiment: Bladder and flank NBTII tumor model, subcutaneous tumor volume by caliper (Example 1); format: in vivo, rat
Text: Standardized bladder perfusion system was modified to introduce bladder and subcutaneous tumors. The bladders were first surgically cannulated by placing a catheter into the bladder, fixed in place using a suture, the free end exteriorized between the scapulae.
The animals were allowed to heal. Bladder tumors were established by injecting tumor cell suspension directly into bladder wall. Subcutaneous tumor was established by injecting tumor cell suspension under skin abdominal flank.
The bladder and flank tumor model used in this study utilized immunocompetent Wistar rats, 7 to 8 weeks in age and weighing between 150 to 200 g. The bladders were first surgically cannulated by placing a P50 catheter into the bladder dome which was fixed in place using a purse string suture and the free end exteriorized between the scapulae. […] Per study protocol, different groups of bladder cannulated rats were next inoculated with NBTII tumor cells (Nara Bladder Tumor No. 2; ATCC® CRL1655™). This is a rat syngeneic bladder tumor cell line originally derived from tumors induced with N-butyl-N-(4-hydroxybutyl) nitrosamine. In certain treatment groups, the tumor cells were injected directly into the bladder wall as a 50 uL cell suspension of approximately 2×10^6 cells. […]
Group 4 (SCT with BT, N=10) animal bladders were cannulated on study Day 0 and on study Day 4 both the bladder and abdominal flank were inoculated with NBTII tumor cells. Gemcitabine HCl in PBS (180 ug/mL) was perfused via the cannula into the bladder beginning on study Day 6 at a constant rate of 0.3 mL per hour for 5 days and again beginning on Day 20 for an additional 5 day treatment period.
Subcutaneous tumor volumes were serially measured post inoculation every two or three days using a caliper method.

[4] = test system: TNF-α; experiment: TNF-α levels in rats inoculated with NBTII bladder tumors; format: in vivo, rat; conditions: FIG. 10
Text: (§2) IL-10 increases associated with acute treatment are known to facilitate T cell mediated antitumor effects.

[5] = test system: CD4+FOXP3+ and CD8+FOXP3+ regulatory T cells; experiment: Splenic regulatory T cells by flow cytometry, NBT-II tumor rats; format: in vivo, rat; conditions: vs untreated tumor rats, FIG. 12
Text: The percentage splenic of regulatory T cells was assed using flow cytometry. […] Intravesicular gemcitabine increased the percentage of activated Cn both CD4+FOXP3+ and CD8+FOXP3+ regulatory T cells, thus indicating activation of the systemic immune system against the tumor.

[6] = test system: IL-10; experiment: IL-10 levels in rats inoculated with NBTII bladder tumors; format: in vivo, rat; conditions: spleens of treated animals, FIG. 9
Text: as §2

[7] = test system: subcutaneous NBTII tumors; experiment: Varying gemcitabine bladder exposure, simultaneously implanted bladder and subcutaneous NBTII tumors (Example 3); format: in vivo, rat; conditions: perfusion 45 and 90 μg/ml, nominal urine 10 and 20 μg/ml, FIG. 6
Text: Extending the investigation described in EXAMPLE 1, additional studies of NBTII bladder and subcutaneous tumors evaluated the effect of varying gemcitabine bladder exposures with and without simultaneous bladder tumor implantation.
In one set of experiments, gemcitabine perfusion concentrations were varied to evaluate the effect of differing bladder tumor exposures on subcutaneous tumor growth rates. Bladder cannulated rats (n=10 per treatment group) with simultaneously implanted bladder and subcutaneous NBTII tumors were studied over two treatment cycles, each separated by a 7-day drug free period, as used in the EXAMPLE 1 study.
Gemcitabine perfusion concentrations of 45 μg/ml and 90 μg/ml were tested, producing nominal urine concentrations of 10 μg/ml and 20 μg/ml respectively, representing […] reductions vs the original study gemcitabine urine concentrations. Subcutaneous tumor growth was measured during the study as previously.

[8] = prior studies in animals and humans; cited from earlier work
[9] = test system: T24-TurboFP635 human derived MIBC cells; experiment: Bladder tumor bioluminescence in athymic rats with T24-TurboFP635 cells injected into the bladder; format: in vivo, rat; conditions: for reduction in bladder tumor bioluminescence vs control: athymic rats, 5-day perfusion, day 5
Description: as §1

[10] = test system: NBTII flank tumors; experiment: Gemcitabine immunogenicity study, NBTII bladder and flank tumors (Example 2); format: in vivo, rat
Text: Gemcitabine immunogenicity was studied in immunocompetent rats with NBTII cells injected into the bladder and subcutaneous flank tissue; flank tumors were implanted either simultaneously with bladder tumors or 14 days after bladder tumor injection. Control groups received only flank tumors, N=15, or bladder and flank tumors with vehicle perfusion, N=10. […]

[11] = test system: subcutaneous NBTII tumors; experiment: Bladder cannulated rats with only subcutaneous NBTII tumors, no bladder tumor (Example 4); format: in vivo, rat; conditions: two perfusion cycles, FIG. 7
Description: To confirm the observed effects on subcutaneous tumor growth is the result of the local action of intravesical gemcitabine on bladder tumors, an additional series of experiments were completed in which bladder cannulated rats were implanted with only subcutaneous NBTII tumors. The animals were then treated with two perfusion cycles of intravesical gemcitabine as in the previous experiments. […] These findings both confirm the presence of a bladder tumor is required and the observed reductions in subcutaneous tumors are mediated immunologically.

[12] = test system: NBTII tumor cells; experiment: Bladder tumor growth after inoculation with NBTII tumor cells; format: in vivo, rat; conditions: average urine concentration 40 ug/mL
[13] = test system: activated CD4 and CD8 cells in the spleen; experiment: Activated CD4 and CD8 cells in the spleen by flow cytometry, NBT-II tumor rats; format: in vivo, rat; conditions: vs untreated tumor rats, FIG. 11
Description: Rats were inoculated with NBT-II tumors and the number of activated CD4 and CD8 cells in the spleen was assessed by flow cytometry either in rats treated with intravesicular gemcitabine or untreated rats. […] Intravesicular gemcitabine increased the percentage of activated CD4 and CD8 cells, thus indicating activation of the immune system against the tumor.

[14] = test system: TGF-β; experiment: Circulating TGF-β in rats inoculated with NBTII bladder tumors; format: in vivo, rat; conditions: low concentration intravesical perfusion, FIG. 8
Text: TGF-β drives Treg cell expression which in turn suppresses both local and systemic CD4 and CD8 T cell response against the bladder tumor.

[15] = rats with concomitant bladder tumors

average gemcitabine urine concentration [1]: 40 µg/mL
Structure (SMILES): Nc1ccn([C@@H]2O[C@H](CO)[C@@H](O)C2(F)F)c(=O)n1 [gemcitabine, 2′,2′-difluorodeoxycytidine]
decrease in the proportion of tumor T regulatory cells to T effector cells [2]: 85.2%
subcutaneous tumor volume during second 5-day intravesical perfusion ([3]; Group 3 (SCT after BT): subcutaneous tumor implanted Day 17 after first perfusion, 180 ug/mL): all subcutaneous tumors were undetectable by palpation; also recorded: immediately declined in tumor volume until the tumors were no longer detectable
eradication of subcutaneous tumors upon retreatment ([3]; Group 3 and 4 combined, two 5-day cycles of 180 ug/mL): complete eradication of all but one subcutaneous tumor
subcutaneous tumor volume after second 5-day intravesical treatment ([3]; Group 4 (SCT with BT), 180 ug/mL, second cycle from Day 20): all but one tumor was undetectable by palpation
subcutaneous tumor growth over the 7-day drug free period ([3]; Group 4 (SCT with BT), after first 5-day perfusion of 180 ug/mL): failed to return to their initial growth rate
subcutaneous tumor growth by the end of the first intravesical perfusion period ([3]; Group 4 (SCT with BT): bladder and subcutaneous tumors Day 4, 180 ug/mL perfused 0.3 mL per hour for 5 days): dramatically slowed or fully arrested; also recorded: continued to grow for several days prior to arresting
TNF-α level [4]: moderately increased
percentage of splenic CD4+FOXP3+ regulatory T cells [5]: increased
percentage of splenic CD8+FOXP3+ regulatory T cells [5]: increased
IL-10 levels [6]: increased IL-10 levels
subcutaneous tumor volume at reduced urine concentrations [7]: dose related reduction in subcutaneous tumor volume
subcutaneous tumor volume during the second treatment cycle [7]: significantly decreased to near ablation
systemic drug concentrations after low concentrations of intravesical gemcitabine [8]: do not produce therapeutic drug concentrations systemically
reduction in bladder tumor bioluminescence vs control ([9]; nominal urine concentration 20 ug/ml): 47.6%
reduction in bladder tumor bioluminescence vs control ([9]; nominal urine concentration 40 ug/ml): 70.5%
reduction in bladder tumor bioluminescence vs control ([9]; nominal urine concentration 80 ug/ml): 91.2%
bladder tumor growth after inoculation with T24 tumor cells ([9]; average urine concentration 40 ug/mL): significantly reduce bladder tumor growth
flank tumor growth arrest during the 7-day drug free period ([10]; 60 ug/ml group): this effect was maintained
flank tumor response, implantation delayed to 3 days before the second perfusion ([10]; flank tumor implanted 14 days after bladder tumor): no tumor growth, but immediate tumor ablation
flank tumor response to the second perfusion ([10]; flank tumors implanted simultaneously with bladder tumors): rapid flank tumor ablation in all but one animal
flank tumor growth during the first perfusion cycle [10, 15]: fully arrested
flank tumor size relative to controls during the first perfusion cycle [10, 15]: 50 % of controls
subcutaneous tumor growth in rats without bladder tumor [11]: continued to grow throughout both treatment cycles
bladder tumor growth after inoculation with NBTII tumor cells [12]: significantly reduce bladder tumor growth
percentage of activated CD4 cells in the spleen [13]: increased
percentage of activated CD8 cells in the spleen [13]: increased
circulating TGF-β plasma concentration [14]: suppressed TGF-β production

Reference: patent US12059428B2, “Methods of treating tumor metastasis” (TARIS Biomedical LLC, priority 2017, dated 2024)
